These results are taken from publication PMC4319826, “Potent Natural Soluble Epoxide Hydrolase Inhibitors from Pentadiplandra brazzeana Baillon: Synthesis, Quantification, and Measurement of Biological Activities In Vitro and In Vivo” (PLoS ONE, 2015).

Converted amounts (≈) assume the structure as drawn. “Also recorded” adds a separate entry of the source. Like-named read-outs stand apart in the source and are kept apart here.

Data set [1] addresses T1, recombinant human sEH (Homo sapiens, UniProt P34913).
T1 construct: made in house; host or cells: insect High Five cells, recombinant baculovirus
T1 sequence (P34913 1-555): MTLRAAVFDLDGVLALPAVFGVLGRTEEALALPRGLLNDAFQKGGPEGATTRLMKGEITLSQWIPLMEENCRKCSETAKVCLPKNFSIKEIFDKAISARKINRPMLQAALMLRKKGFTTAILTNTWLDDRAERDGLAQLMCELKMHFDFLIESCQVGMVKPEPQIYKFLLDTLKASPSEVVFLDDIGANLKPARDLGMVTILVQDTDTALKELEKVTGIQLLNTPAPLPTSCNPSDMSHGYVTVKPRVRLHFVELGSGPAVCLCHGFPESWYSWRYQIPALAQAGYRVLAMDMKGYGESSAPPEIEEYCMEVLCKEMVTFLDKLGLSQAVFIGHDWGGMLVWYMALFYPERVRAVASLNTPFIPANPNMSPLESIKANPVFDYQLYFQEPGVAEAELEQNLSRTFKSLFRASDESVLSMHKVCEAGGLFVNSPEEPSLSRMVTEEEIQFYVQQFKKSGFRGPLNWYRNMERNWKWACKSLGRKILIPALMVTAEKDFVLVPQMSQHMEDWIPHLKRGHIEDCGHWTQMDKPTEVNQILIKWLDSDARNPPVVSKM
The experiment in a line: sEH inhibition by fluorescent assay (CMNPC assay), human. Particulars: for IC50: recombinant human sEH 0.96 nM, [S] = 5 μM, mean ± SD of three measurements. The class given is biochemical. The protocol: (§1) Recombinant human and recombinant rat sEH were produced in insect High Five cells using recombinant baculovirus expression vectors, and purified by affinity chromatography as reported previously. Each enzyme appeared as a single band (0.3 μg loading) with an estimated purity of more than 95% by Coomassie Brilliant Blue staining following SDS-PAGE separation (S1 Fig.). The final recombinant sEH preparations had no esterase or glutathione S-transferase activity which interferes with the CMNPC assay as described below.
(§2) IC50 values were determined as described previously using cyano (2-methoxynaphthalen-6-yl) methyl trans-(3-phenyl-oxyran-2-yl) methyl carbonate (CMNPC) as a fluorescent substrate. Recombinant human or recombinant rat sEH (0.96 nM) was incubated with crude root extract or inhibitors for 5 min in 25 mM bis-Tris/HCl buffer (pH 7.0) containing 0.1 mg/mL of BSA at 30°C prior to substrate introduction ([S] = 5 μM). Activity was measured by determining the appearance of the 6-methoxy-2-naphthaldehyde with an excitation wavelength of 330 nm and an emission wavelength of 465 nm for 10 min.
The inhibitory potency on human sEH was measured using the CMNPC assay as described in the Materials and Methods. Firstly, the inhibition percentage by each fraction (100 times dilution) was measured (Figure S5&S7). Then the inhibitory potency was measured for the fractions showing higher than 50% inhibition and the IC50 was determined. The potency of each of the fractions is presented as a relative potency to the calculated IC50 of the extract based on the concentration of MMU (Relative potency unit=dilution factor at IC50 of each of fraction/dilution factor at calculated IC50 of the extract based on MMU). […] Data in Table S1&S2 show the relative potency of each fraction and the percentage of recovered potency.

Data set [2] concerns the target T1, recombinant human sEH. The data set is described as follows: sEH inhibition by radioactivity-based assay (t-DPPO assay), human. Particulars: for IC50: t-DPPO 50 μM, mean ± SD of three measurements. Format: biochemical. As for the experimental part: as §1
IC50 values were determined as described previously with slight modifications, using racemic [^3H] trans-diphenylpropene oxide (t-DPPO). Purified recombinant human sEH was diluted in 100 mM sodium phosphate buffer (pH 7.4) containing 0.1 mg/ml BSA, and was incubated in triplicate with inhibitors for 5 min at 30°C prior to the introduction of the radiolabeled substrate (t-DPPO: 50 μM; ∼10,000 cpm/assay). The mixture was incubated at 30°C for 10 min and the reaction was quenched by the addition of 60 μl of methanol. The remaining substrate was extracted by vigorous mixing with 200 μl of isooctane. The radioactivity of the aqueous phase was measured using a liquid scintillation counter (Perkin Elmer Tri-Carb 2810TR, Shelton, CT). Epoxide hydrolase activity was determined as a percentage of the radioactivity corresponding to the diol in the aqueous phase relative to the control.

Another data set concerns the target T2, recombinant rat sEH (Rattus norvegicus, UniProt P80299).
T2 construct: made in house; host or cells: insect High Five cells, recombinant baculovirus
T2 sequence (P80299 1-554): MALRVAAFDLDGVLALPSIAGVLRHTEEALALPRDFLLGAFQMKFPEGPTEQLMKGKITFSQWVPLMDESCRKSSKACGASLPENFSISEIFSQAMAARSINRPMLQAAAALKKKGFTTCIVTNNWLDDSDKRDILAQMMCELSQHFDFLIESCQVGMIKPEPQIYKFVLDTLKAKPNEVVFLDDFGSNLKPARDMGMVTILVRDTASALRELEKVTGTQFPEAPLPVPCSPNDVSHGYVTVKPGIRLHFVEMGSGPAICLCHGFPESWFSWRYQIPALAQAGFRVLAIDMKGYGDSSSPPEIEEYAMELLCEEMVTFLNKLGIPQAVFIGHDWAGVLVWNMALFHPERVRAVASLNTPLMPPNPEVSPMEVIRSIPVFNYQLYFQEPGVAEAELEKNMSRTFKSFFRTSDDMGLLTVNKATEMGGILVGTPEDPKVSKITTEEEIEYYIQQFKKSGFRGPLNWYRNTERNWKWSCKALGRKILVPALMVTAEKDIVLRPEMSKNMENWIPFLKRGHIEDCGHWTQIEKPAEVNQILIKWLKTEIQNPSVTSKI
The data set is described as follows: sEH inhibition by fluorescent assay (CMNPC assay), rat. The class given is biochemical. As to conditions: recombinant rat sEH 0.96 nM, [S] = 5 μM, mean ± SD of three measurements. As for the experimental part:
as §1, §2

The subject of another data set is sEH. Particulars: cited from earlier work.
The target of data set [3] is T1, recombinant human sEH. The experiment in a line: Enzyme kinetics (Dixon method, t-DPPO substrate), dissociation constant. The class given is biochemical. As for the experimental part: Dissociation constants were determined following the method described by Dixon for competitive tight binding inhibitors, using t-DPPO as a substrate. Inhibitor MMU at concentrations between 0 and 1000 nM was incubated in triplicate for 5 min in 100 mM sodium phosphate buffer (pH 7.4) at 30°C with 100 μl of the enzyme (2 nM of recombinant human sEH). Substrate (4.0 ≤ [S] final ≤ 30 μM) was then added. Velocity was measured as described previously. For each substrate concentration, the plots of the velocity as a function of the inhibitor concentration allow the determination of an apparent inhibition constant (Kiapp). The plot of the Kiapp values as a function of the substrate concentration allows the determination of Ki when [S] = 0. Kiapp was measured in at least 3 separate assays. Results are presented as average ± SE.

Data set [4] is described as follows: Solubility in sodium phosphate buffer. Format: physicochemical. Particulars: sodium phosphate buffer 0.1 M pH 7.4, 25°C, mean±SD. As for the experimental part:
An excess amount of MMU was added to a vial containing sodium phosphate buffer, 0.1 M pH 7.4 (0.25 mL), and the MMU suspension was equilibrated during 1 h of sonication and 48 h of shaking at 25°C, followed by centrifugation. The amount of MMU in the supernatant was analyzed by LC—MS/MS. The result is presented as mean ± SD of triplicate measurement.

The test system of data set [5] is carrageenan induced inflammatory pain. The experiment in a line: Nociceptive assay, carrageenan-induced inflammatory pain model (von Frey mechanical withdrawal threshold). The class given is in vivo. Particulars: rat. The protocol:
Male Sprague-Dawley rats weighing 235–280 g were obtained from Charles River Laboratories and maintained in the UC Davis animal housing facility with ad libitum water and food on a 12 h/12 h light-dark cycle. Behavioral nociceptive testing was conducted by assessing mechanical withdrawal threshold using an electronic von Frey anesthesiometer apparatus (IITC, Woodland Hills, CA). […] At least three measurements were taken at 1–2 min inter-stimulus intervals. Data were normalized to percentage values using the formula (mechanical withdrawal threshold (g)) ×100/ (mechanical withdrawal threshold (g) of naïve animals). The analgesic effect of MMU was tested using the intraplantar carrageenan elicited local inflammatory pain model. […] Subsequently, the ability of these treatments to reduce the carrageenan-induced inflammatory pain was monitored over the course of 2.5 h.

For data set [6] the test system is unchanged. On the set-up: method as in Rose et al., (2010). Particulars: rat, ref Rose et al., (2010), cited from earlier work.
A further data set has as its system human sEH. As to conditions: cited from earlier work.

On to `O=C(NCc1ccccc1)NCc1ccccc1` [BBU, 1,3-Dibenzylurea], for which the figures for the IC50 at recombinant human sEH [1], at recombinant human sEH [2] and on recombinant rat sEH were 1900 ± 300 nM, 48300 ± 7000 nM and 100 ± 6 nM, respectively.
Take `CC(=O)O[C@H]1CC[C@]2(C)[C@H]3CC=C4[C@@H]5CC(C)(C)CC[C@]5(C)CC[C@@]4(C)[C@]3(C)CC[C@H]2C1(C)C` [β-amyrin acetate]: the IC50 in the data set with sEH is 570 nM.
Consider `COc1ccc(CNC(=O)NCc2ccc(OC)cc2)cc1` [MMU, 1,3-Bis (4-methoxybenzyl) urea], for which the half-inhibitory concentration (IC50) at recombinant human sEH [1] amounted to 92 ± 14 nM. Further, the IC50 at recombinant human sEH [2] worked out at 2600 ± 400 nM. In addition, on recombinant human sEH [2] (t-DPPO assay), the “potency relative to honokiol (more potent)” value was “about 8 fold”. At recombinant rat sEH, the IC50 was determined as 35 ± 5 nM. On recombinant human sEH [3], the Ki was 54 nM, the “potency higher than APAU (Ki based)” value is “approximately 2 fold” and the “potency lower than t-AUCB (Ki based)” value was “approximately 40 fold”. In addition, the solubility at 48 h in [4] came out at 10.6 ± 2.1 µM (≈ 3.18 µg/mL). In addition, the “reduction of carrageenan-induced inflammatory pain” value (“reduction” for short) in data set [5] (10 μg/paw intraplantar, 4 h after carrageenan, monitored 2.5 h) was “effectively reduced inflammatory pain; also recorded: significantly reduced carrageenan induced inflammatory pain; also recorded: significantly reduced pain levels; also recorded: showed local analgesic effects”. Further, the “duration of efficacy compared to morphine” value in [5] (MMU 10 μg/paw vs morphine 10 μg/paw, Tukey p<0.05) was “longer duration of efficacy compared to morphine”.
As to `COc1ccc(CNC(=O)NCc2ccccc2)cc1` [BMU, 1-Benzyl-3-(4-methoxybenzyl) urea], the IC50 at recombinant human sEH [1] was 400 ± 50 nM; on recombinant human sEH [2], 10200 ± 2600 nM; at recombinant rat sEH it was 44 ± 4.2 nM. For the same molecule, the “inhibitory activity lower than that of MMU” value on recombinant human sEH [1] (with both CMNPC and t-DPPO assays) is reported as “about 4 fold”.
Turning to `C=CCc1ccc(O)c(-c2ccc(O)c(CC=C)c2)c1` [honokiol, reference compound], the IC50 at recombinant human sEH [2] is 20300 ± 1700 nM; in the data set with sEH it was 3400 nM.
As to `CN1CC[C@]23c4c5ccc(O)c4O[C@H]2[C@@H](O)C=C[C@H]3[C@H]1C5` [morphine], in data set [6] (10 μg/paw intraplantar), the “reduction” value was “significantly reduced carrageenan induced inflammatory pain; also recorded: significantly reduced pain levels”.
Consider `O=C(Nc1ccc(OC(F)(F)F)cc1)NC1CCN(C(=O)C2CC2)CC1` [TPCU, 1-(1-(Cyclopropanecarbonyl)piperidin-4-yl)-3-(4-(trifluoromethoxy)phenyl) urea], for which the “reduction” value in [6] (10 ng/paw intraplantar) is recorded as “significantly reduced carrageenan induced inflammatory pain; also recorded: significantly reduced pain levels”. Besides, the IC50 with human sEH was […].
